ChEMBL document CHEMBL3272350, “Drugs derived from cannabinoids. 4. Effect of alkyl substitution in sulfur and carbocyclic analogs” (J Med Chem, 1976)
Activity calls are given as the source filed them.

How the values were obtained:
[1] = test system: Canis familiaris; test: Antianxiety activity in dog assessed as decrease in reactivity at 1 mg/kg, po administered as single dose measured every 15 mins for 24 hrs; type: functional, organism-based; design: dose 1 mg/kg; conditions: Canis lupus familiaris
[2] = test system: Mus musculus; test: Antianxiety activity in albino BALB/cJ mouse assessed as reduction of footshock-induced fighting behavior at 10 mg/kg, po after 90 mins relative to control; type: functional; design: scale not given: the % may be the effect or the level left
[3] = test system: Canis familiaris; test: Antianxiety activity in dog assessed as decrease in reactivity and ataxia at 10 mg/kg, po administered as single dose measured every 15 mins for 24 hrs; type: functional, organism-based; design: dose 10 mg/kg; conditions: Canis lupus familiaris
[4] = test system: Mus musculus; test: Analgesic activity in po dosed mouse assessed as inhibition of acetic acid-induced writhing administered 30 mins prior to acetic acid challenge measured after 5 mins for 20 mins; type: functional
[5] = test system: Felis catus; test: Sedative-hypnotic activity in cat assessed as increase in total sleep time at 0.5 mg/kg, po administered with diet for 15 to 20 mins measured for 14 hrs; type: functional
[6] = Acute toxicity in po dosed Swiss-Webster mouse assessed as mortality measured for 7 days; type: organism-based; conditions: in vivo
[7] = test system: Mus musculus; test: Antidepressant activity in mouse assessed as potentiation of dopa-induced motor responses at 5 mg/kg, po pretreated with compound followed by dopa challenge for 4 hrs; type: functional, organism-based; design: dose 5 mg/kg
[8] = test system: Felis catus; test: Sedative-hypnotic activity in cat assessed as increase in total sleep time at 2 mg/kg, po administered with diet for 15 to 20 mins measured for 14 hrs; type: functional
[9] = test system: Mus musculus; test: Anticonvulsant activity in mouse assessed as protection against audiogenic seizure at 10 mg/kg, po administered for 1 hr prior to testing relative to control; type: functional
[10] = test system: Mus musculus; test: Analgesic activity in po dosed mouse by hot-plate test; type: functional
[11] = test system: Canis familiaris; test: Antianxiety activity in dog assessed as decrease in reactivity and ataxia at 1 mg/kg, po administered as single dose measured every 15 mins for 24 hrs; type: functional, organism-based; design: dose 1 mg/kg; conditions: Canis lupus familiaris
[12] = test system: Rattus norvegicus; test: Analgesic activity in po dosed Sprague-Dawley rat assessed as increase in pain threshold measured at 15 to 90 mins by tail-flick test; type: functional
[13] = test system: Mus musculus; test: Anticonvulsant activity in mouse assessed as protection against audiogenic seizure at 30 mg/kg, po administered for 1 hr prior to testing relative to control; type: functional
[14] = test system: Felis catus; test: Sedative-hypnotic activity in cat assessed as increase in total sleep time at 1 mg/kg, po administered with diet for 15 to 20 mins measured for 14 hrs; type: functional
[15] = test system: Canis familiaris; test: Antianxiety activity in dog assessed as decrease in reactivity at 0.1 mg/kg, po administered as single dose measured every 15 mins for 24 hrs; type: functional, organism-based; design: dose 0.1 mg/kg; conditions: Canis lupus familiaris
[16] = test system: Canis familiaris; test: Antianxiety activity in dog assessed as decrease in reactivity and ataxia at 0.1 mg/kg, po administered as single dose measured every 15 mins for 24 hrs; type: functional, organism-based; design: dose 0.1 mg/kg; conditions: Canis lupus familiaris
[17] = test system: Felis catus; test: Sedative-hypnotic activity in cat assessed as increase in total sleep time at 0.1 mg/kg, po administered with diet for 15 to 20 mins measured for 14 hrs; type: functional
[18] = test system: Felis catus; test: Sedative-hypnotic activity in cat assessed as increase in total sleep time at 0.25 mg/kg, po administered with diet for 15 to 20 mins measured for 14 hrs; type: functional

## CCCCCC(C)C(C)c1cc(O)c2c(c1)OC(C)(C)C1=C2CCC1 (stereo not given)
[1]
  Activity: Active
[2]
  Activity: 33%
[3]
  Activity: Active
[4]
  ED50: 25.3 mg/kg
[5]
  Time: 59 min
[6]
  LD50 at 168 h: > 500 mg/kg
[7]
  Activity: Active
[8]
  Time: 65 min
[9]
  Activity: 1%
[10]
  ED50: 45.1 mg/kg

## CCCCCC(C)C(C)c1cc(O)c2c(c1)OC(C)(C)C1=C2CC(C)C1 (stereo not given)
[2]
  Activity: 1%
[3]
  Activity: Active
[4]
  ED50: 22.6 mg/kg
[11]
  Activity: Active
[6]
  LD50 at 168 h: > 500 mg/kg
[7]
  Activity: Active
[9]
  Activity: inactive

## CCCCCC(C)C(C)c1cc(O)c2c(c1)OC(C)(C)C1=C2CC(C)(C)C1 (stereo not given)
[2]
  Activity: 33%
[3]
  Activity: Active
[4]
  ED50: > 40 mg/kg
[6]
  LD50 at 168 h: > 500 mg/kg
[7]
  Activity: Active
[12]
  ED50: > 40 mg/kg
[9]
  Activity: inactive

## CCCCCC(C)C(C)c1cc(O)c2c(c1)OC(C)(C)C1=C2C(C)CCC1 (stereo not given)
[2]
  Activity: 33%
[3]
  Activity: Active
[4]
  ED50: 10.5 mg/kg
[13]
  Activity: 33%
[11]
  Activity: Active
[5]
  Time: 54 min
[6]
  LD50 at 168 h: > 500 mg/kg
[7]
  Activity: Active
[10]
  ED50: 25 mg/kg

## CCCCCC(C)C(C)c1cc(O)c2c(c1)OC(C)(C)C1=C2CCS1 (stereo not given)
[2]
  Activity: 33%
[3]
  Activity: Active
[6]
  LD50 at 168 h: > 500 mg/kg
[14]
  Time: 30 min
[7]
  Activity: Active
[15]
  Activity: Active
[8]
  Time: 31 min
[9]
  Activity: 33%

## CCCCCC(C)C(C)c1cc(O)c2c(c1)OC(C)(C)C1=C2CC(C)(C)S1 (stereo not given)
[2]
  Activity: 1%
[3]
  Activity: Active
[4]
  ED50: > 40 mg/kg
[6]
  LD50 at 168 h: > 500 mg/kg
[7]
  Activity: Active
[9]
  Activity: 1%

## CCCCCC(C)C(C)c1cc(O)c2c(c1)OC(C)(C)C1=C2C(C)CS1 (stereo not given)
[2]
  Activity: 33%
[16]
  Activity: Active
[4]
  ED50: 4.7 mg/kg
[17]
  Time: 21 min
[11]
  Activity: Active
[6]
  LD50 at 168 h: > 500 mg/kg
[7]
  Activity: Active
[18]
  Time: 50 min
[9]
  Activity: 33%
[10]
  ED50: 1.4 mg/kg

## CCCCCC(C)C(C)c1cc(O)c2c(c1)OC(C)(C)C1=C2CC(C)S1 (stereo not given)
[2]
  Activity: 33%
[3]
  Activity: Active
[4]
  ED50: 34 mg/kg
[6]
  LD50 at 168 h: > 500 mg/kg
[7]
  Activity: Active
[9]
  Activity: 1%

## CCCCCC(C)C(C)c1cc(O)c2c(c1)OC(C)(C)C1=C2CC(C)CC1 (stereo not given)
[2]
  Activity: 66%
[3]
  Activity: Active
[4]
  ED50: 19.6 mg/kg
[11]
  Activity: Active
[5]
  Time: 62 min
[6]
  LD50 at 168 h: > 500 mg/kg
[7]
  Activity: Active
[9]
  Activity: 66%
[10]
  ED50: 12.4 mg/kg

## CCCCCC(C)C(C)c1cc(O)c2c(c1)OC(C)(C)C1=C2C(C)CC1 (stereo not given)
[2]
  Activity: 66%
[3]
  Activity: Active
[4]
  ED50: 13.3 mg/kg
[11]
  Activity: Active
[5]
  Time: 58 min
[6]
  LD50 at 168 h: > 500 mg/kg
[7]
  Activity: Active
[9]
  Activity: 66%
